These results are taken from ChEMBL document CHEMBL4602708, “Discovery of CNS-Penetrant Apoptosis Signal-Regulating Kinase 1 (ASK1) Inhibitors” (ACS Med Chem Lett, 2020).

The test system of one series is P-gp (MDR1), human. Briefly: Apparent permeability from apical to basolateral side in MDCK-MDR1 cells transfected with human p-gp. The format is ADME, cell-based, Canis lupus familiaris. Conditions: dog.
Series [1] can be described thus: Volume of distribution at steady state in rat. The format is ADME. Conditions: in vivo, read-out: Vdss.

The term Papp A→B denotes the apparent permeability from the apical to the basolateral side of a cell layer. As for `COc1nn(-c2cnccn2)cc1C(=O)Nc1cccc(-c2nncn2C(C)C)n1`, in the series on P-gp (MDR1), human, the apical-to-basolateral permeability (Papp A→B) worked out at 5 ×10⁻⁶ cm/s. Further, the Vd in series [1] came to 2.3 L/kg.
For `C[C@H]1CCCOc2nn(C)cc2C(=O)Nc2cccc(n2)-c2nncn21` the same measures were 1.8 ×10⁻⁶ cm/s and 2.7 L/kg.
